What is called IC50 is the concentration at which inhibition is half-maximal.

The values below come from patent US20080146593A1, “Substituted 5-Phenyl Pyrimidines I In Therapy” (Basf Aktiengesellschaft, priority 2005, published 2008).

In the assay the test system is HeLa cells. As to the kind of experiment: Measurement of the cell cycle inhibition in HeLa cells. It is filed as cell-based. To be noted: HeLa B cells, 20 h incubation with compound; FACS ratio G0/G1 to G2/M vs DMSO; concentration at which 50% of cells are in cell cycle arrest. Here is the method:
Measurement of the Cell Cycle Inhibition in HeLa Cells—Test Procedure:
HeLa B cells are grown in DMEM (Life Technologies Cat No 21969-035) supplemented with 10% Fetal Calf Serum (FCS, Life Technologies Cat No 10270-106) in 180 cm^2 Flasks at 37° C., 92% humidity and 7% CO2.
Cells are seeded at 5×10^4 cells per well in a 24-well plate. Twenty hours later the compounds are added such that the final concentration is 1×10^−6, 3.3×10^−7, 1.1×10^−7, 3.7×10^−8, 1.2×10^−8 and 1×10^−9 M in a final volume of 500 μl. DMSO alone is added to 6 wells as a control. Cells are incubated with the compounds as above for 20 h. Then cells are observed under the microscope to check for cell death, and the 24-well plate is then centrifuged at 1200 rpm for 5 min at 20° C., acceleration position 7 and break position 5 (Eppendorf centrifuge 5804R).
The supernatant is removed and the cells lysed with 0.5 ml RNase Buffer (10 mM NaCitrate, 0.1% Nonidet NP40, 50 μg/ml RNase, 10 μg/ml Propidium iodide) per well. The plates are then incubated for at least 30 min in the dark at RT and the samples then transferred to FACS tubes. Samples are measured in a FACS machine (Beckton Dickinson) at the following settings:
Instrument Settings of the FACS Calibur:
The ratio of cells in G0/G1-phase to G2/M phase is calculated and compared to the value for the controls (DMSO) only. Results are given in table 2 as the IC50 value calculated from the concentration curve plotted against the cell cycle ratio and indicate the compound concentration at which 50% of cells are in cell cycle arrest after treatment with the compound.

On to `C[C@H](Nc1nc(C(N)=O)nc(Cl)c1-c1c(F)cc(F)cc1F)C(F)(F)F` [Example 159], for which the half-maximal inhibitory concentration (IC50) amounted to 23 nM.

For the molecule `CCCNc1nc(-n2nc(C)cc2C(=O)OCC)nc(Cl)c1-c1ccc(C)cc1F` [Example 160], the IC50 turned out to be 31 nM.

As to `Fc1cc(F)c(-c2c(Cl)nc(-c3nccs3)nc2NC2CCCC2)c(F)c1` [Example 40], the IC50 is 23 nM.

With `NC(=NO)c1nc(Cl)c(-c2c(F)cc(F)cc2F)c(NCC(F)(F)F)n1` [Example 173], the 50% inhibitory concentration (IC50) amounted to 18 nM.

Take `CC1CCCCN1c1nc(-n2cccn2)nc(Br)c1-c1c(F)cc(F)cc1F` (stereo not drawn) [Example 161]: the concentration for half-maximal inhibition (IC50) is 50 nM.

Take `O=C1CCCN1c1nc(Cl)c(-c2c(F)cc(F)cc2F)c(NCC(F)(F)F)n1` [Example 210]: the IC50 came to 39 nM.

Consider `Cc1ccc(-c2c(Cl)nc(-n3cccn3)nc2N2CCCC(C)C2)c(F)c1` (stereo not drawn) [Example 99], for which the concentration for half-maximal inhibition (IC50) is 39 nM.

As to `CC1CCN(c2nc(-n3ccnn3)nc(Cl)c2-c2ccc(F)cc2Cl)CC1` [Example 119], the IC50 was 48 nM.

`CCOC(=O)c1cc(C)nn1-c1nc(Cl)c(-c2c(F)cc(F)cc2F)c(N[C@H](C)C(C)C)n1` [Example 88]: the IC50 worked out at 44 nM.

Regarding `Cc1cnn(-c2nc(Cl)c(-c3c(F)cc(F)cc3F)c(N[C@@H](C)C(F)(F)F)n2)c1Cl` [Example 155], the 50% inhibitory concentration (IC50) is 22 nM.

Regarding `CON=C(N)c1nc(Cl)c(-c2c(F)cc(F)cc2F)c(N[C@H](C)C(F)(F)F)n1` [Example 130], the half-maximal inhibitory concentration (IC50) came to 1.8 nM.

On to `Cc1cnn(-c2nc(Cl)c(-c3c(F)cc(F)cc3F)c(NC(C)C)n2)c1` [Example 24], for which the half-inhibitory concentration (IC50) came out at 50 nM.

With `CCC(C)Nc1nc(-n2cccn2)nc(Cl)c1-c1ccc(F)cc1F` (stereo not drawn) [Example 105], the IC50 was found to be 45 nM.

For the molecule `COCC(C)Nc1nc(-n2ccc(N)n2)nc(Cl)c1-c1ccc(C)cc1F` (stereo not drawn) [Example 128], the half-inhibitory concentration (IC50) stood at 38 nM.

Regarding `COc1cc(F)c(-c2c(Cl)nc(C(N)=NO)nc2N[C@@H](C)C(F)(F)F)c(F)c1` [Example 181], the half-maximal inhibitory concentration (IC50) worked out at 6 nM.

With `C[C@H](Nc1nc(N(C)N)nc(Cl)c1-c1c(F)cc(F)cc1F)C(F)(F)F` [Example 9], the concentration for half-maximal inhibition (IC50) came out at 13 nM.

On to `C[C@H](Nc1nc(-n2ccc(Br)n2)nc(Cl)c1-c1c(F)cc(F)cc1F)C(F)(F)F` [Example 38], for which the IC50 is 24 nM.

Take `CC1CCN(c2nc(C(N)=NO)nc(Cl)c2-c2c(F)cc(F)cc2F)CC1` [Example 58]: the half-maximal inhibitory concentration (IC50) was determined as 26 nM.

With `CC(Nc1nc(-n2ccc(N)n2)nc(Cl)c1-c1c(F)cc(F)cc1F)C(F)(F)F` (stereo not drawn) [Example 57], the concentration for half-maximal inhibition (IC50) came out at 5.8 nM.

With `Cc1nc(C)n(-c2nc(Cl)c(-c3c(F)cc(F)cc3F)c(N3CC=CCC3)n2)n1` [Example 59], the IC50 amounted to 43 nM.

As to `CC1CCN(c2nc(-n3cccn3)nc(Cl)c2-c2c(F)cccc2Cl)CC1` [Example 66], the IC50 was found to be 37 nM.

In the case of `C[C@H](Nc1nc(-n2cc(I)cn2)nc(Cl)c1-c1c(F)cc(F)cc1F)C(F)(F)F` [Example 34], the concentration for half-maximal inhibition (IC50) came out at 25 nM.

For `CC(C)[C@@H](C)Nc1nc(-n2cnc([N+](=O)[O-])n2)nc(Cl)c1-c1c(F)cc(F)cc1F` [Example 89], the 50% inhibitory concentration (IC50) turned out to be 47 nM.

Turning to `CC(C)Nc1nc(-n2cc(Br)cn2)nc(Cl)c1-c1c(F)cc(F)cc1F` [Example 17], the IC50 was 45 nM.

As for `CC1CCN(c2nc(C(N)=O)nc(Cl)c2-c2c(F)cccc2F)CC1` [Example 179], the IC50 was 53 nM.

Turning to `CCON=C(N)c1nc(Cl)c(-c2c(F)cc(F)cc2F)c(N[C@H](C)C(F)(F)F)n1` [Example 158], the IC50 was determined as 44 nM.

For the molecule `C[C@H](Nc1nc(C(N)=NO)nc(Cl)c1-c1c(F)cccc1F)C(F)(F)F` [Example 175], the half-inhibitory concentration (IC50) was 18 nM.

For the molecule `Cc1nc(-c2nc(Cl)c(-c3c(F)cc(F)cc3F)c(NC3CCCC3)n2)cs1` [Example 72], the IC50 stood at 46 nM.

Turning to `C=CCN(C)c1nc(-n2ccnn2)nc(Cl)c1-c1c(F)cc(F)cc1F` [Example 206], the IC50 was 20 nM.

As for `C[C@H](Nc1nc(C(N)=NOC(F)F)nc(Cl)c1-c1c(F)cc(F)cc1F)C(F)(F)F` [Example 177], the IC50 turned out to be 21 nM.

Take `CCC(C)Nc1nc(-n2cccn2)nc(Cl)c1-c1c(C)cccc1F` (stereo not drawn) [Example 109]: the IC50 came to 25 nM.

Turning to `Cc1cc(C)n(-c2nc(Cl)c(-c3c(F)cc(F)cc3F)c(N3CCC(C)CC3)n2)n1` [Example 30], the IC50 was 48 nM.

As to `CCC(C)Nc1nc(-n2cncn2)nc(Cl)c1-c1c(C)cccc1F` (stereo not drawn) [Example 110], the IC50 came to 25 nM.

`CC1CCCCN1c1nc(-n2ccc(N)n2)nc(Cl)c1-c1c(F)cccc1F` (stereo not drawn) [Example 127]: the half-inhibitory concentration (IC50) was 37 nM.

As for `C=CCN(CC=C)c1nc(-n2cc(Br)cn2)nc(Cl)c1-c1ccc(F)cc1Cl` [Example 134], the IC50 worked out at 50 nM.

Take `CC(C)Nc1nc(-c2ccccn2)nc(Cl)c1-c1c(F)cccc1F` [Example 83]: the half-maximal inhibitory concentration (IC50) was found to be 37 nM.

On to `Cc1nc(C)n(-c2nc(Cl)c(-c3c(F)cc(F)cc3F)c(N3CCCC3C)n2)n1` (stereo not drawn) [Example 77], for which the IC50 came out at 35 nM.

Turning to `C[C@H](Nc1nc(-n2nccn2)nc(Br)c1-c1c(F)cc(F)cc1F)C(F)(F)F` [Example 165], the IC50 was determined as 30 nM.

On to `Cc1nc(C)n(-c2nc(Cl)c(-c3c(F)cc(F)cc3F)c(N3CCCCC3)n2)n1` [Example 54], for which the 50% inhibitory concentration (IC50) stood at 23 nM.

For `CC1CCCN(c2nc(-n3ccnn3)nc(Cl)c2-c2c(F)cc(F)cc2F)C1` (stereo not drawn) [Example 42], the half-maximal inhibitory concentration (IC50) stood at 18 nM.

For the molecule `Cc1ccnc(-c2nc(Cl)c(-c3c(F)cc(F)cc3F)c(N[C@@H](C)C(F)(F)F)n2)c1` [Example 14], the IC50 came to 14 nM.

With `CC(C)C(C)Nc1nc(-c2ccccn2)nc(Cl)c1-c1c(F)cccc1F` (stereo not drawn) [Example 84], the IC50 turned out to be 27 nM.

Turning to `COc1cc(F)c(-c2c(Cl)nc(-n3cncn3)nc2N2CCC(C)CC2)c(F)c1` [Example 68], the IC50 was found to be 20 nM.

For `CC(C)Nc1nc(-n2nccc2[N+](=O)[O-])nc(Cl)c1-c1c(F)cc(F)cc1F` [Example 23], the half-inhibitory concentration (IC50) stood at 39 nM.

For `CC1CCN(c2nc(-c3ccccn3)nc(Cl)c2-c2c(F)cccc2F)CC1` [Example 81], the concentration for half-maximal inhibition (IC50) was determined as 34 nM.

As for `CC1CCCN1c1nc(-n2cccn2)nc(Cl)c1-c1c(F)cc(F)cc1F` (stereo not drawn) [Example 74], the IC50 was 13 nM.

In the case of `Cc1nc(-n2cncn2)nc(N2CCC(C)CC2)c1-c1c(F)cc(F)cc1F` [Example 93], the IC50 was found to be 39 nM.

As to `C[C@H](Nc1nc(-n2ccc(C(F)(F)F)n2)nc(Cl)c1-c1c(F)cc(F)cc1F)C(F)(F)F` [Example 6], the IC50 was 17 nM.

As to `Cc1ccn(-c2nc(Cl)c(-c3c(F)cc(F)cc3F)c(N[C@H](C)C(C)C)n2)n1` [Example 92], the 50% inhibitory concentration (IC50) was found to be 26 nM.

In the case of `CC1CCN(c2nc(-c3cccnn3)nc(Cl)c2-c2c(F)cc(F)cc2F)CC1` [Example 79], the 50% inhibitory concentration (IC50) was found to be 21 nM.

With `CC(C)[C@H](C)Nc1nc(-n2cccn2)nc(Cl)c1-c1c(F)cc(F)cc1F` [Example 138], the IC50 is 23 nM.

`CC(C)[C@@H](C)Nc1nc(-n2cccn2)nc(Cl)c1-c1c(F)cccc1Cl` [Example 46]: the IC50 stood at 38 nM.

For `CC(C)[C@@H](C)Nc1nc(-n2ccnn2)nc(Cl)c1-c1c(F)cccc1Cl` [Example 50], the IC50 was found to be 9.1 nM.

On to `Cc1cn(-c2nc(Cl)c(-c3c(F)cc(F)cc3F)c(NC(C)C(F)(F)F)n2)nc1-c1ccco1` (stereo not drawn) [Example 95], for which the IC50 was determined as 39 nM.

As for `Cc1nc(-n2ccnn2)nc(N2CCC(C)CC2)c1-c1c(F)cccc1Cl` [Example 166], the IC50 came out at 42 nM.

As to `CC1CCN(c2nc(-n3cccn3)nc(Cl)c2-c2c(F)cccc2F)CC1` [Example 115], the 50% inhibitory concentration (IC50) was 23 nM.

For the molecule `C=CCCN(C)c1nc(-n2cccn2)nc(Cl)c1-c1ccc(F)cc1Cl` [Example 132], the IC50 turned out to be 46 nM.

Turning to `Fc1cc(F)c(-c2c(Cl)nc(-n3cccn3)nc2N2CCCCC2)c(F)c1` [Example 51], the IC50 came out at 6.5 nM.

In the case of `C[C@H](Nc1nc(C(N)=NO)nc(Cl)c1-c1cc(F)ccc1Cl)C(F)(F)F` [Example 220], the IC50 is 36 nM.

In the case of `CC(=O)NC(=O)c1nc(Cl)c(-c2c(F)cccc2F)c(N2CCC(C)CC2)n1` [Example 184], the half-inhibitory concentration (IC50) turned out to be 51 nM.

As to `CON=C(N)c1nc(Cl)c(-c2cc(F)ccc2Cl)c(N[C@@H](C)C(F)(F)F)n1` [Example 221], the 50% inhibitory concentration (IC50) turned out to be 30 nM.

Consider `C[C@H](Nc1nc(-n2cccn2)nc(Br)c1-c1c(F)cc(F)cc1F)C(F)(F)F` [Example 207], for which the IC50 came to 15 nM.

`C[C@H](Nc1nc(C(N)=NO)nc(Cl)c1-c1c(F)cccc1Cl)C(F)(F)F` [Example 176]: the concentration for half-maximal inhibition (IC50) was 20 nM.

Regarding `CC(C)[C@@H](C)Nc1nc(-n2cncn2)nc(Cl)c1-c1c(F)cc(F)cc1F` [Example 60], the IC50 stood at 19 nM.

For `C[C@H](Nc1nc(-n2nccc2[N+](=O)[O-])nc(Cl)c1-c1c(F)cc(F)cc1F)C(F)(F)F` [Example 7], the IC50 was 21 nM.

`CC(C)[C@H](C)Nc1nc(-n2ccnn2)nc(Cl)c1-c1c(F)cc(F)cc1F` [Example 139]: the IC50 amounted to 26 nM.
